pIC50: −log10 of the molar value.

The target of the assay is Presenilin-1 (Homo sapiens, UniProt P49768). Description: Inhibition of gamma secretase (unknown origin).

Take `CC(C)[C@H](O)C(=O)N[C@@H](C)C(=O)NC1C(=O)N(C)CCc2ccccc21` (stereo partly drawn) [(2S)-2-hydroxy-3-methyl-N-[(1S)-1-{[(1S)-3-methyl-2-oxo-2,3,4,5-tetrahydro-1H-3-benzazepin-1-yl]carbamoyl}ethyl]butanamide]: the pIC50 (commonly −log10 of the IC50, conventionally taken in molar units) is 7.96.

(Values after BindingDB's records for doi:10.1021/acs.jmedchem.5b01516 (Centre Hospitalier Universitaire Vaudois (Chuv), 2016).)
